No end group written: not given here.
Columns and labels:
[1] = tested on: female mice; assay: Acute toxicity; format: in vivo; conditions: 8, 25 and 50 μg/kg b.w., i.v.; observed 15 days
Protocol: Acute toxicity of synthetic peptides was determined in female mice (weight ca. 20 g). Groups of 6 animals were used for each experiment and control.
Peptides Seq.Id.No: 2,3,4 and 6 were applied in a dosage of 8, 25 and 50 μg/kg b.w., i.v. Control group was treated with saline (0.9%, 5.0 ml/kg b.w.).

[2] = tested on: NMRI-Hannover female mice; assay: Influence on vitamin A induced malformation; format: in vivo; conditions: peptide alone, 10 μg or 10 ng/kg b.w., i.p., tenth day of pregnancy
Protocol: 12. Influence on induced malformation
NMRI-Hannover female mice, two months old, 25 g b.w., but not previously exposed to copulation were used in all experiments. The female mice in the estrus phase were mated overnight with well experienced healthy male mice. The mice were sacrified after 20 days of pregnancy.
Vitamin A was applied in a dose of 15700 U/kg b.w., i.m., at tenth day of the pregnancy (0.05 ml/kg b.w.). Peptide Seq.Id.No: 4 was given simultaneously in a dosage of 10 μg or 10 ng/kg b.w.,i.p.
Control: saline 5.0 ml/kg b.w., i.p.
Animals non treated with vitamin A receiving at the same time i.p. saline or peptide 4 in the same dosage served as healthy control.

[3] = tested on: Albino Wistar (male) rats; assay: Gastric ulcer induced by restraint stress; format: in vivo, rat; conditions: 10 μg or 10 ng/kg b.w., i.p. or i.g., 1 hour before 48 hours immobilization; even at 10 ng/kg
Protocol: 1.) Gastric ulcer induced by restraint stress
Albino Wistar (male) rats (180-200 g), were used in the experiments. All the animals were immobilized in a supine position for 48 hours at room temperature. Immediately thereafter they were sacrified and the lesions measured. The peptides Seq. Id. No: 4, 6 and 2 were applied in dosage of 10 μg or 10 ng/kg b.w., i.p. or i.g. 1 hour before noxious procedure.

[4] = tested on: Wistar male rats; assay: Turpentine induced buccal edemas; format: in vivo, rat; conditions: 10 μg/kg b.w., i.p. and i.g., 1 hour before turpentine; measured 24 hours after induction
Protocol: 3. Turpentine induced buccal edemas
Wistar male rats (180-240 g), N=10 in each group. Turpentine was given intramucosally 0.02 ml/rat. Control: 0.9% saline intramucosally (0.02 ml/rat, 2×). Peptides Seq. Id. No: 2 and 4 were applied in a dose of 10 μg and 10 ng/kg, i.p. and i.g., 1 hour before turpentine. Buccal edemas were measured 24 hours after edema induction. Statistical analysis: Mann-Whitney test. The investigated peptides were effective in a dosage of 10 μg/kg b.w.

Substance	signs of toxicity or death [1]	malformation in animals not treated with vitamin A [2]	protection against restraint stress gastric lesions [3]	effect on buccal edemas [4]
EPPPLKPA [Seq. Id. No: 6]	no signs of toxicity or death			
LEPPPLKPADALGV [Seq. Id. No: 4]	no signs of toxicity or death	No malformation		
LEPPPLKPADDALGV [Seq.Id.No: 3]	no signs of toxicity or death			
Seq. Id. No: 2: synthetic peptide of 8 to 15 amino acid residues with BPC-type activity; sequence not printed in this text (GEPPPGKPADDAGLV)	no signs of toxicity or death		strongly protective	effective

— patent US6211151A, “Peptides with organo-protective activity, a process for preparation thereof and their use in therapy” (priority 1992, dated 2001)
